Data on one substance can be found in patent publication US4851521A, “Esters of hyaluronic acid” (priority 1985, dated 1989).

Regarding “benzylester of hyaluronic acid (HY) [HYAFF11]”, the “solubility in DMSO” value was found to be 200 mg/mL.
